Structures can show the parent of a compound that is named as a salt.
Assays:
Assay type in all cases: biochemical
Human VAP-1 = molecular target: T1, Human VAP-1 (Homo sapiens, UniProt Q16853); experiment: VAP-1 inhibition assay (Amplex Red continuous fluorescence assay); details: 30 min pre-incubation at 37° C.; substrate benzylamine; read-out: Human VAP-1 IC50
T1 sequence (Q16853 1-763): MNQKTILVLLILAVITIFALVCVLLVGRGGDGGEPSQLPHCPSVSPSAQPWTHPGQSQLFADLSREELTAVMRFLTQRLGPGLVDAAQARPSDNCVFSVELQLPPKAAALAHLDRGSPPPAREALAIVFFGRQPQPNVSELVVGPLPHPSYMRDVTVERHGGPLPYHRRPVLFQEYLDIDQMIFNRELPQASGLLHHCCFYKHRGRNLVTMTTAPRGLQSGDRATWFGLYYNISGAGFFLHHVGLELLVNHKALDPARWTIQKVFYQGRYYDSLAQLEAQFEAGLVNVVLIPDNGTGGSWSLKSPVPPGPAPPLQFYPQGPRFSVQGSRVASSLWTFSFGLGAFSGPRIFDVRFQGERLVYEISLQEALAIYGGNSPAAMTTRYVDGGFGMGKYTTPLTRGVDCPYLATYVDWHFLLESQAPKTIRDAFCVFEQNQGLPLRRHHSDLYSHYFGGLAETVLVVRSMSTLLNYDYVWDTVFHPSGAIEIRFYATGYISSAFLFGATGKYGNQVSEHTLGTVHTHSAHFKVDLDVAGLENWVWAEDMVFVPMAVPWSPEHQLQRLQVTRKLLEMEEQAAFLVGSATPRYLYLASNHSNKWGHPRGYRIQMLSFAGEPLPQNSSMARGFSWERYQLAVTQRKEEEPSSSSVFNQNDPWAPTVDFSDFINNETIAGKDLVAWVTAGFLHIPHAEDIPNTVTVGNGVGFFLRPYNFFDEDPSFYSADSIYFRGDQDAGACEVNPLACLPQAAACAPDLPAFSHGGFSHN
Method in brief: (§1)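 Continuous Amplex Red/HRP fluorescence read of H2O2 (ex/em 510/565 nm, 5 min). Substrates and buffers: VAP-1 benzylamine, […] sodium phosphate pH 7.4, 30 min 37° C preincubation; MAO-A tyramine and MAO-B benzylamine, same buffer, room temp; DAO histamine, 50 mM HEPES pH 7.5, room temp. IC50 from 4-parameter fit of rates.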

Human MAO-A = molecular target: T2, Human MAO-A (Homo sapiens, UniProt P21397); experiment: MAO-A inhibition (Amplex Red continuous fluorescence assay); details: 30 min pre-incubation at room temp; substrate tyramine; read-out: Human MAO-A IC50
T2 sequence (P21397 1-527): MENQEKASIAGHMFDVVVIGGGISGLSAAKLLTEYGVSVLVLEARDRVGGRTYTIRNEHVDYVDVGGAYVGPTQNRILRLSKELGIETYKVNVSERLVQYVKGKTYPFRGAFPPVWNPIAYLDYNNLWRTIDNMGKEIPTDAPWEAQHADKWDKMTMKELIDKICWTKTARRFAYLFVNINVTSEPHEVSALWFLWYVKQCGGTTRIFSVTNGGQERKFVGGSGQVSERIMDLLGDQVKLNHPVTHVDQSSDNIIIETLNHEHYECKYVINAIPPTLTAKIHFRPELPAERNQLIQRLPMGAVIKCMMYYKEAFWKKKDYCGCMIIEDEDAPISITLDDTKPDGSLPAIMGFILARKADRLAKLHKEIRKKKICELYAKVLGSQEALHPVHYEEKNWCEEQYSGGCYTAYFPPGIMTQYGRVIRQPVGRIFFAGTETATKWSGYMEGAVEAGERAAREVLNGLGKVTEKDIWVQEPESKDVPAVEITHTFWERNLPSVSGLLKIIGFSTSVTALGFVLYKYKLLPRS
Method in brief: as §1

Human MAO-B = molecular target: T3, Human MAO-B (Homo sapiens, UniProt P27338); experiment: MAO-B inhibition (Amplex Red continuous fluorescence assay); details: 30 min pre-incubation at room temp; substrate benzylamine; read-out: Human MAO-B IC50
T3 sequence (P27338 1-520): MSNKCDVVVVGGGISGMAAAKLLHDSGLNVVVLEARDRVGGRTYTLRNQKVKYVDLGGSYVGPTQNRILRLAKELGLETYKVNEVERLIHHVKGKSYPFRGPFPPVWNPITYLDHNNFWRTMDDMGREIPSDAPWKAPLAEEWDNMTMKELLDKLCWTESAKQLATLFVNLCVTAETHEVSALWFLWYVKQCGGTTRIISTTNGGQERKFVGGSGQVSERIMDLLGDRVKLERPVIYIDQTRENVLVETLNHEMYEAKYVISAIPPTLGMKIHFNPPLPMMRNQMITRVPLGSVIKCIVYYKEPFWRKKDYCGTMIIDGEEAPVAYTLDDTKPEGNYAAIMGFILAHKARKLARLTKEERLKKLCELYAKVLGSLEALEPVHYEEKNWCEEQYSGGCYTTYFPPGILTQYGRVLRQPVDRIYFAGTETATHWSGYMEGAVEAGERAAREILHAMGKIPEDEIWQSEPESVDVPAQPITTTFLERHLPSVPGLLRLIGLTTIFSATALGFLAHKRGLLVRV
Method in brief: as §1

Human DAO = molecular target: T4, Human DAO (Homo sapiens, UniProt P19801); experiment: DAO inhibition (Amplex Red continuous fluorescence assay); details: 30 min pre-incubation at room temp; substrate histamine; read-out: Human DAO IC50
T4 sequence (P19801 20-751): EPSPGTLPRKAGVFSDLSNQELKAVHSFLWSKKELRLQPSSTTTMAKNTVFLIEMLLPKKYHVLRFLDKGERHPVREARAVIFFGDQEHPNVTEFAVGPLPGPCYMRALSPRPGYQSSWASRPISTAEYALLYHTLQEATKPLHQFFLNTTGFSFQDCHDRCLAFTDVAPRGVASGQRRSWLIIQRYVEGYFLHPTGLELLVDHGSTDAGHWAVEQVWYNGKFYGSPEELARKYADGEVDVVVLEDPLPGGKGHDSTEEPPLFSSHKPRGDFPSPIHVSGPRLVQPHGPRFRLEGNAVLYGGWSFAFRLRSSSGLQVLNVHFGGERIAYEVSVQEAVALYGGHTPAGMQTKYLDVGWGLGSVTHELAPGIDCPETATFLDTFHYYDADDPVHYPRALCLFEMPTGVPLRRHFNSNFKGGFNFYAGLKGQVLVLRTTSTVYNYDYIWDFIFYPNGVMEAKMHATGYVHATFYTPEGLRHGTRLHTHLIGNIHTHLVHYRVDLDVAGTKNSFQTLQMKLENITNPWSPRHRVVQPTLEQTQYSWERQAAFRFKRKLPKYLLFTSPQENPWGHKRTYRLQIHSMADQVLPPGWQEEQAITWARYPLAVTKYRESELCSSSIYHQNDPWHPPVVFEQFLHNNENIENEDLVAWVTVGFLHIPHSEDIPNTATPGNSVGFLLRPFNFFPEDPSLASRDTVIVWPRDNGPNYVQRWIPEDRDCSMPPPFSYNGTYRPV
Method in brief: as §1

Compound | IC50 (Human VAP-1) | IC50 (Human MAO-A) | IC50 (Human MAO-B) | IC50 (Human DAO)
NC/C(=C/F)COc1ccc(-c2ncco2)cc1 [Compound 53, (Z)-3-fluoro-2-((4-(oxazol-2-yl)phenoxy)methyl)prop-2-en-1-amine hydrochloride] | < 3 µM | 3 to 10 µM | < 3 µM | < 3 µM
Cn1ccc(-c2ccc(OC/C(=C\F)CN)cc2)n1 [Compound 54, (Z)-3-fluoro-2-((4-(1-methyl-1H-pyrazol-3-yl)phenoxy)methyl)prop-2-en-1-amine hydrochloride] | < 3 µM | 3 to 10 µM | < 3 µM | < 3 µM
CCNC(=O)Oc1ccc(OC/C(=C/F)CN)cc1 [Compound 55, (E)-4-((2-(aminomethyl)-3-fluoroalkyl)oxy)phenyl ethylcarbamate] | < 3 µM | < 3 µM | < 3 µM | > 10 µM
CCNC(=O)Oc1ccc(OC/C(=C\F)CN)cc1 [Compound 56, (Z)-4-((2-(aminomethyl)-3-fluoroalkyl)oxy)phenyl ethylcarbamate] | < 3 µM | < 3 µM | < 3 µM | < 3 µM
NC/C(=C\F)Cn1ncc(-c2ccc(O)cc2)n1 [Compound 57, (E)-4-(2-(2-(aminomethyl)-3-fluoroalkyl)-2H-1,2,3-triazol-4-yl)phenol hydrochloride] | < 3 µM | < 3 µM | 3 to 10 µM | < 3 µM
NC/C(=C/F)Cn1ncc(-c2ccc(O)cc2)n1 [Compound 58, (Z)-4-(2-(2-(aminomethyl)-3-fluoroalkyl)-2H-1,2,3-triazol-4-yl)phenol hydrochloride] | < 3 µM | < 3 µM | < 3 µM | < 3 µM
CC(C)(C)NC(=O)c1ccc2c(ccn2C/C(=C/F)CN)c1 [Compound 59, (E)-1-(2-(aminomethyl)-3-fluoroalkyl)-N-(tert-butyl)-1H-indole-5-carboxamide] | < 3 µM | > 10 µM | < 3 µM | > 10 µM
NCC(=CF)COc1ccc(-c2cnn[nH]2)cc1 [Compound 60] | < 3 µM | < 3 µM | < 3 µM | < 3 µM
NC/C(=C\F)COc1ccc(C2=NCCN2)cc1 [Compound 61, (E)-2-((4-(4,5-dihydro-1H-imidazol-2-yl)phenoxy)methyl)-3-fluoroprop-2-en-1-amine] | < 3 µM | > 10 µM | > 10 µM | < 3 µM
NC/C(=C\F)CN1CCc2ccccc21 [Compound 62, (E)-3-fluoro-2-(indolin-1-ylmethyl)prop-2-en-1-amine hydrochloride] | < 3 µM | > 10 µM | > 10 µM | < 3 µM
NC/C(=C/F)COc1ccc(-c2ncc[nH]2)cc1 [Compound 63, (Z)-2-((4-(1H-imidazol-2-yl)phenoxy)methyl)-3-fluoroprop-2-en-1-amine] | < 3 µM | > 10 µM | > 10 µM | < 3 µM
NC/C(=C\F)COc1ccc(-c2ncn[nH]2)cc1 [Compound 64, (E)-2-((4-(1H-1,2,4-triazol-5-yl)phenoxy)methyl)-3-fluoroprop-2-en-1-amine] | < 3 µM | 3 to 10 µM | < 3 µM | < 3 µM
NC/C(=C\F)COC(=O)Nc1ccccc1 [Compound 65, (E)-2-(aminomethyl)-3-fluoroalkyl phenylcarbamate] | < 3 µM | 3 to 10 µM | 3 to 10 µM | < 3 µM
CCNC(=O)N(C)c1ccc(NC/C(=C/F)CN)cc1 [Compound 66, (E)-1-(4-((2-(aminomethyl)-3-fluoroalkyl)amino)phenyl)-3-ethyl-1-methylurea] | < 3 µM | > 10 µM | > 10 µM | > 10 µM
CCNC(=O)N(C)c1ccc(NC/C(=C\F)CN)cc1 [Compound 67, (Z)-1-(4-((2-(aminomethyl)-3-fluoroalkyl)amino)phenyl)-3-ethyl-1-methylurea] | < 3 µM | > 10 µM | 3 to 10 µM | 3 to 10 µM
NC/C(=C/F)COC(=O)Nc1ccccc1 [Compound 68, (Z)-2-(aminomethyl)-3-fluoroalkyl phenylcarbamate] | < 3 µM | < 3 µM | < 3 µM | < 3 µM
CC(C)(C)NC(=O)c1cccc2c1ccn2CC(=CF)CN [Compound 69, 1-(2-(aminomethyl)-3-fluoroalkyl)-N-(tert-butyl)-1H-indole-4-carboxamide] | < 3 µM | > 10 µM | < 3 µM | > 10 µM
CC(C)(C)NC(=O)c1cn(CC(=CF)CN)c2ccccc12 [Compound 70, 1-(2-(aminomethyl)-3-fluoroalkyl)-N-(tert-butyl)-1H-indole-3-carboxamide] | < 3 µM | < 3 µM | > 10 µM | > 10 µM
NC/C(=C\F)CNC(=O)Nc1ccccc1 [Compound 71] | < 3 µM | < 3 µM | > 10 µM | 3 to 10 µM
NC/C(=C/F)CNC(=O)Nc1ccccc1 [Compound 72] | < 3 µM | < 3 µM | > 10 µM | < 3 µM
NC/C(=C\F)COc1ccc(C(=O)NCCOCCOCCOCCOCCOCCOCCOCCOCCOCCOCCOCCNC(=O)CCCCC2SCC3NC(=O)NC32)cc1 (stereo not shown) [Compound 78] | < 3 µM | > 10 µM | > 10 µM | < 3 µM
NC/C(=C\F)COc1cnc(N2CC[C@H](O)C2)nc1 [Compound 79] | < 3 µM | > 10 µM | 3 to 10 µM | < 3 µM
